# From paper PMC9848257, “Design and synthesis of novel rigid dibenzo[b,f]azepines through ring closure technique as promising anticancer candidates against leukaemia and acting as selective topoisomerase II inhibitors and DNA intercalators” (Journal of Enzyme Inhibition and Medicinal Chemistry, 2023)
# Columns and labels:
# Assay type in all cases: cell-based
# MALME-3M = experiment: NCI-60 one-dose screen, MALME-3M; settings: Homo sapiens, melanoma, single dose 10 μM, read-out: Growth inhibition %
# Method: (§1) Anti-proliferative effects of the counterparts 4a–g and 5a–g were screened against 60 human cancer cell lines, following the Developmental Therapeutics Program protocol, National Cancer Institute[35].
# (§2) The anti-tumour activity of the fourteen synthesised congeners was investigated at the NCI against a panel of 60 cancer cell lines (NCI-60 Cell One-Dose Screen). The tested dibenzo[b,f]azepine derivatives were screened at a single dose level (10 μM), Table 1.
# SK-MEL-2 = experiment: NCI-60 one-dose screen, SK-MEL-2; settings: Homo sapiens; SK-MEL-2, melanoma; single dose 10 μM; read-out: Growth inhibition %
# Method: as §1, §2
# RPMI-8226 = experiment: NCI-60 one-dose screen, RPMI-8226; settings: Homo sapiens; RPMI-8226, leukaemia; single dose 10 μM; read-out: Growth inhibition %
# Method: as §1, §2
# EKVX = experiment: NCI-60 one-dose screen, EKVX; settings: Homo sapiens, non-small cell lung cancer, single dose 10 μM, read-out: Growth inhibition %
# Method: as §1, §2
# HL-60(TB) = experiment: NCI-60 one-dose screen, HL-60(TB); settings: Homo sapiens, leukaemia, single dose 10 μM, read-out: Growth inhibition %
# Method: as §1, §2
# SK-OV-3 = experiment: NCI-60 one-dose screen, SK-OV-3; settings: Homo sapiens; SK-OV-3, ovarian cancer; single dose 10 μM; read-out: Growth inhibition %
# Method: as §1, §2
# NCI-H23 = experiment: NCI-60 one-dose screen, NCI-H23; settings: Homo sapiens; NCI-H23, non-small cell lung cancer; single dose 10 μM; read-out: Growth inhibition %
# Method: as §1, §2
# RXF 393 = experiment: NCI-60 one-dose screen, RXF 393; settings: Homo sapiens; RXF 393, renal cancer; single dose 10 μM; read-out: Growth inhibition %
# Method: as §1, §2
# OVCAR-3 = experiment: NCI-60 one-dose screen, OVCAR-3; settings: Homo sapiens; OVCAR-3, ovarian cancer; single dose 10 μM; read-out: Growth inhibition %
# Method: as §1, §2
# SK-MEL-28 = experiment: NCI-60 one-dose screen, SK-MEL-28; settings: Homo sapiens; SK-MEL-28, melanoma; single dose 10 μM; read-out: Growth inhibition %
# Method: as §1, §2
# HOP-62 = experiment: NCI-60 one-dose screen, HOP-62; settings: Homo sapiens; HOP-62, non-small cell lung cancer; single dose 10 μM; read-out: Growth inhibition %
# Method: as §1, §2
# MOLT-4 = experiment: NCI-60 one-dose screen, MOLT-4; settings: Homo sapiens; MOLT-4, leukaemia; single dose 10 μM; read-out: Growth inhibition %
# Method: as §1, §2
# HS 578 T = experiment: NCI-60 one-dose screen, HS 578 T; settings: Homo sapiens, breast cancer, single dose 10 μM, read-out: Growth inhibition %
# Method: as §1, §2
# ACHN = experiment: NCI-60 one-dose screen, ACHN; settings: Homo sapiens, renal cancer, single dose 10 μM, read-out: Growth inhibition %
# Method: as §1, §2
# NCI-H460 = experiment: NCI-60 one-dose screen, NCI-H460; settings: Homo sapiens; NCI-H460, non-small cell lung cancer; single dose 10 μM; read-out: Growth inhibition %
# Method: as §1, §2
# PC-3 = experiment: NCI-60 one-dose screen, PC-3; settings: Homo sapiens; PC-3, prostate cancer; single dose 10 μM; read-out: Growth inhibition %
# Method: as §1, §2
# DU-145 = experiment: NCI-60 one-dose screen, DU-145; settings: Homo sapiens; DU-145, prostate cancer; single dose 10 μM; read-out: Growth inhibition %
# Method: as §1, §2
# SF-268 = experiment: NCI-60 one-dose screen, SF-268; settings: Homo sapiens; SF-268, CNS cancer; single dose 10 μM; read-out: Growth inhibition %
# Method: as §1, §2
# HT29 = experiment: NCI-60 one-dose screen, HT29; settings: Homo sapiens, HT-29; HT29, colon cancer; single dose 10 μM; read-out: Growth inhibition %
# Method: as §1, §2
# HCT-116 = experiment: NCI-60 one-dose screen, HCT-116; settings: Homo sapiens; HCT-116, colon cancer; single dose 10 μM; read-out: Growth inhibition %
# Method: as §1, §2
# MCF-7 = experiment: NCI-60 one-dose screen, MCF-7; settings: Homo sapiens, MCF7; MCF-7, breast cancer; single dose 10 μM; read-out: Growth inhibition %
# Method: as §1, §2
# MDA-MB-231-ATCC = experiment: NCI-60 one-dose screen, MDA-MB-231-ATCC; settings: Homo sapiens, breast cancer, single dose 10 μM, read-out: Growth inhibition %
# Method: as §1, §2
# A498 = experiment: NCI-60 one-dose screen, A498; settings: Homo sapiens; A498, renal cancer; single dose 10 μM; read-out: Growth inhibition %
# Method: as §1, §2
# NCI-H322M = experiment: NCI-60 one-dose screen, NCI-H322M; settings: Homo sapiens, non-small cell lung cancer, single dose 10 μM, read-out: Growth inhibition %
# Method: as §1, §2
# UO-31 = experiment: NCI-60 one-dose screen, UO-31; settings: Homo sapiens; UO-31, renal cancer; single dose 10 μM; read-out: Growth inhibition %
# Method: as §1, §2
# OVCAR-5 = experiment: NCI-60 one-dose screen, OVCAR-5; settings: Homo sapiens; OVCAR-5, ovarian cancer; single dose 10 μM; read-out: Growth inhibition %
# Method: as §1, §2
# HCT-15 = experiment: NCI-60 one-dose screen, HCT-15; settings: Homo sapiens; HCT-15, colon cancer; single dose 10 μM; read-out: Growth inhibition %
# Method: as §1, §2
# OVCAR-8 = experiment: NCI-60 one-dose screen, OVCAR-8; settings: Homo sapiens; OVCAR-8, ovarian cancer; single dose 10 μM; read-out: Growth inhibition %
# Method: as §1, §2
# SW-620 = experiment: NCI-60 one-dose screen, SW-620; settings: Homo sapiens; SW-620, colon cancer; single dose 10 μM; read-out: Growth inhibition %
# Method: as §1, §2
# SF-539 = experiment: NCI-60 one-dose screen, SF-539; settings: Homo sapiens; SF-539, CNS cancer; single dose 10 μM; read-out: Growth inhibition %
# Method: as §1, §2
# COLO 205 = experiment: NCI-60 one-dose screen, COLO 205; settings: Homo sapiens; COLO 205, colon cancer; single dose 10 μM; read-out: Growth inhibition %
# Method: as §1, §2
# HOP-92 = experiment: NCI-60 one-dose screen, HOP-92; settings: Homo sapiens; HOP-92, non-small cell lung cancer; single dose 10 μM; read-out: Growth inhibition %
# Method: as §1, §2
# M14 = experiment: NCI-60 one-dose screen, M14; settings: Homo sapiens; M14, melanoma; single dose 10 μM; read-out: Growth inhibition %
# Method: as §1, §2
# 786-0 = experiment: NCI-60 one-dose screen, 786-0; settings: Homo sapiens; 786-0, renal cancer; single dose 10 μM; read-out: Growth inhibition %
# Method: as §1, §2
SMILES,inhibition at 10 µM (MALME-3M) [%],inhibition at 10 µM (SK-MEL-2) [%],inhibition at 10 µM (RPMI-8226) [%],inhibition at 10 µM (EKVX) [%],inhibition at 10 µM (HL-60(TB)) [%],inhibition at 10 µM (SK-OV-3) [%],inhibition at 10 µM (NCI-H23) [%],inhibition at 10 µM (RXF 393) [%],inhibition at 10 µM (OVCAR-3) [%],inhibition at 10 µM (SK-MEL-28) [%],inhibition at 10 µM (HOP-62) [%],inhibition at 10 µM (MOLT-4) [%],inhibition at 10 µM (HS 578 T) [%],inhibition at 10 µM (ACHN) [%],inhibition at 10 µM (NCI-H460) [%],inhibition at 10 µM (PC-3) [%],inhibition at 10 µM (DU-145) [%],inhibition at 10 µM (SF-268) [%],inhibition at 10 µM (HT29) [%],inhibition at 10 µM (HCT-116) [%],also measured
"Cc1ccc(-c2nnc(N3c4ccccc4C=Cc4ccccc43)o2)cc1 [Compound 5d, 2-(5 h-Dibenzo[b,f]azepin-5-yl)-5-(p-tolyl)-1,3,4-oxadiazole]",< 10,< 10,52,< 10,33.8,< 10,< 10,< 10,< 10,< 10,< 10,21,13.2,< 10,58.6,41.4,< 10,10.1,< 10,45.8,inhibition at 10 µM (MCF-7): 15.7%; inhibition at 10 µM (MDA-MB-231-ATCC): 9.21%; inhibition at 10 µM (A498): < 10%; inhibition at 10 µM (NCI-H322M): < 10%; inhibition at 10 µM (UO-31): < 10%; inhibition at 10 µM (OVCAR-5): < 10%; inhibition at 10 µM (HCT-15): 61.1%; inhibition at 10 µM (OVCAR-8): 11.5%; inhibition at 10 µM (SW-620): < 10%; inhibition at 10 µM (SF-539): < 10%; inhibition at 10 µM (COLO 205): 19.4%; inhibition at 10 µM (HOP-92): 14.3%; inhibition at 10 µM (M14): < 10%; inhibition at 10 µM (786-0): < 10%
"O=[N+]([O-])c1ccc(-c2nnc(N3c4ccccc4C=Cc4ccccc43)o2)cc1 [Compound 5e, 2-(5 h-Dibenzo[b,f]azepin-5-yl)-5–(4-nitrophenyl)-1,3,4-oxadiazole]",< 10,< 10,< 10,< 10,30.1,< 10,< 10,< 10,< 10,< 10,< 10,19.4,< 10,< 10,1.84,24.6,< 10,16.1,< 10,< 10,inhibition at 10 µM (MCF-7): 17.4%; inhibition at 10 µM (MDA-MB-231-ATCC): 15.3%; inhibition at 10 µM (A498): 14.8%; inhibition at 10 µM (NCI-H322M): 4.97%; inhibition at 10 µM (UO-31): 30.7%; inhibition at 10 µM (OVCAR-5): < 10%; inhibition at 10 µM (HCT-15): 30.7%; inhibition at 10 µM (OVCAR-8): 1.15%; inhibition at 10 µM (SW-620): < 10%; inhibition at 10 µM (SF-539): < 10%; inhibition at 10 µM (COLO 205): < 10%; inhibition at 10 µM (HOP-92): 22.8%; inhibition at 10 µM (M14): < 10%; inhibition at 10 µM (786-0): < 10%
"C1=Cc2ccccc2N(c2nnc(-c3ccc4ccccc4c3)o2)c2ccccc21 [Compound 5f, 2-(5 h-Dibenzo[b,f]azepin-5-yl)-5-(naphthalen-2-yl)-1,3,4-oxadiazole]",< 10,< 10,12.1,28.9,< 10,< 10,12.4,10.4,2.22,< 10,< 10,16.3,< 10,10.5,25.1,40.9,< 10,21.9,< 10,27.3,inhibition at 10 µM (MCF-7): 24.4%; inhibition at 10 µM (MDA-MB-231-ATCC): < 10%; inhibition at 10 µM (A498): < 10%; inhibition at 10 µM (NCI-H322M): 9.52%; inhibition at 10 µM (UO-31): 24.7%; inhibition at 10 µM (OVCAR-5): < 10%; inhibition at 10 µM (HCT-15): 57%; inhibition at 10 µM (OVCAR-8): 9.31%; inhibition at 10 µM (SW-620): < 10%; inhibition at 10 µM (SF-539): < 10%; inhibition at 10 µM (COLO 205): < 10%; inhibition at 10 µM (HOP-92): 20.9%; inhibition at 10 µM (M14): < 10%; inhibition at 10 µM (786-0): < 10%
"C1=Cc2ccccc2N(c2nnc(Cc3ccccc3)o2)c2ccccc21 [Compound 5g, 2-Benzyl-5-(5H-dibenzo[b,f]azepin-5-yl)-1,3,4-oxadiazole]",< 10,< 10,27.8,2.24,10.6,< 10,< 10,< 10,12.3,< 10,18.4,10.9,24.1,27.7,17.4,< 10,16.3,10.7,< 10,31.4,inhibition at 10 µM (MCF-7): < 10%; inhibition at 10 µM (MDA-MB-231-ATCC): < 10%; inhibition at 10 µM (A498): < 10%; inhibition at 10 µM (NCI-H322M): < 10%; inhibition at 10 µM (UO-31): 30.7%; inhibition at 10 µM (OVCAR-5): < 10%; inhibition at 10 µM (HCT-15): 4.03%; inhibition at 10 µM (OVCAR-8): 16.5%; inhibition at 10 µM (SW-620): 19.7%; inhibition at 10 µM (SF-539): 11.5%; inhibition at 10 µM (COLO 205): < 10%; inhibition at 10 µM (HOP-92): < 10%; inhibition at 10 µM (M14): < 10%; inhibition at 10 µM (786-0): 18.8%
